In PMC3444674 (Bioorganic & medicinal chemistry, 2012):

Legend:
Type in all cases: biochemical
human DDAH-1 [1] = biological target: T1, human DDAH-1 (Homo sapiens, UniProt O94760); assay: Time-dependent inactivation of human DDAH-1
[2] = biological target: T2, P. aeruginosa isoform of DDAH (Pseudomonas aeruginosa, UniProt Q9I4E3); assay: Inhibition of P. aeruginosa DDAH by reversible inhibitors; conditions: at concentrations up to 1 mM
T2 sequence (Q9I4E3 1-254): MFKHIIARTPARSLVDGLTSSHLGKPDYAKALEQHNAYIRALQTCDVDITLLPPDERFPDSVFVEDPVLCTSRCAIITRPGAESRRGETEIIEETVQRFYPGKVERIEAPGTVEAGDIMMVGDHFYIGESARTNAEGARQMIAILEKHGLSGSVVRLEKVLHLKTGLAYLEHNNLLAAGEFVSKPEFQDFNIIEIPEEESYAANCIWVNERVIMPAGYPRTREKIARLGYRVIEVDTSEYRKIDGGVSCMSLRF

human DDAH-1 [3] = biological target: T1, human DDAH-1; assay: Reversibility upon dilution into excess substrate; conditions: enzyme-inhibitor mixture diluted into excess substrate
human DDAH-1 [4] = biological target: T1, human DDAH-1; assay: Concentration-response and mode-of-inhibition assays for IC50 and Ki; conditions: for Hill Coefficient: concentration-response plot, substrate 50 µM; for Mode of inhibition: varying substrate and inhibitor, large effect on KM, not on kcat

T1 sequence (O94760 whole entry, canonical isoform): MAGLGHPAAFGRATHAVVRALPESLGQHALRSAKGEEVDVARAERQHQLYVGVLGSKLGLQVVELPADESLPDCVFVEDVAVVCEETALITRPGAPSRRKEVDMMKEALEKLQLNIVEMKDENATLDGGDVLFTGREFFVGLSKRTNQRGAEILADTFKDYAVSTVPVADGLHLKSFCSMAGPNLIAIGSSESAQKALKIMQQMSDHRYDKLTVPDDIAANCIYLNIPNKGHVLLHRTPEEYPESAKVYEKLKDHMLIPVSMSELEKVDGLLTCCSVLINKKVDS

| kinact/KI (human DDAH-1 [1]) | Inhibition of P. aeruginosa DDAH [2] | Reversibility of inhibition (human DDAH-1 [3]) | Hill Coefficient (human DDAH-1 [4]) | Mode of inhibition (human DDAH-1 [4]) | Compound | Ligand Efficiency (human DDAH-1 [4]; calculated from experimental Ki values) |
| --- | --- | --- | --- | --- | --- | --- |
| ~0.05 M⁻¹ s⁻¹ | – | – | – | – | Cc1cc(Br)ccn1 [Compound 10, 2-methyl-4-bromopyridine] | – |
| ~0.04 M⁻¹ s⁻¹ | – | – | – | – | OCc1cc(Cl)ccn1 [Compound 11, 2-hydroxymethyl-4-chloropyridine] | – |
| – | did not show any inhibition | full activity was rapidly regained | 1.5 ± 0.2 | competitive | CCc1nc2ccccc2[nH]1 [Compound 12, 2-ethyl-benzimidazole] | – |
| – | – | full activity was rapidly regained | 1.0 ± 0.3 | competitive | NCCSc1nc2ccccc2o1 [Compound 13, 2-(1,3-benzoxazol-2-ylthio)ethanamine] | 0.3 kcal / mol / heavy (non-hydrogen) atom |
